“Also recorded” adds a separate entry of the source.
Key:
Fc of an antibody = details: Protein A binding region; cited from earlier work
Human IgG = assay: SPR IgG binding assay on gold (Example 4); details: IgG 10-100 ug/mL, polyacrylic acid on gold, FIG. 7
Procedure: Slides were then rinsed in Ethanol and incubated in a solution of 1% Polyacrylic acid. 2% w/v Polyacrylic acid was prepared by adding […] of Stock 10% w/v PAA solution (Poly(Acrylic Acid) MW 50K 10% w/v solution in DMF) to […] (N,N-Dimethylformamide (DMF) Labscan HPLC Grade—Dried over sieves and filtered). 100 mM solutions of NHS and DIC were prepared in dry DMF (N-Hydroxysuccinimide (NHS) (Aldrich cat: 130672), N,N′-Diisopropylcarbodiimide (DIC) (Sigma Aldrich cat: D125407)). 15 mL of 100 mM NHS and 15 mL of 100 mM DIC were added to 30 mL of 2% w/v of PAA solution and shaken on a RATEK platform mixer with speed setting 70 for 10 minutes. This gave a final 1.0% w/v solution of activated PAA. Each amino functionalized gold slide was placed in 10 mL of activated 1% wlv PAA solution and allowed to shake on a RATEK platform mixer with speed setting […] for 1 hour. The slides were then rinsed with dry DMF and using house nitrogen with a filter pipette tip in the end of the hose, the slides were blown dry using a concentrated flow over each slide. […]
The first concentration of IgG to be flowed through the cell and over the slide was 10 μg/mL. […] After the final concentration of 100 μg/mL IgG was analyzed, the signal was monitored by flowing 10 mM Phosphate Buffered Saline pH7.4 with 0.2% Tween20 over the slide. […]

IgG binding by SPR (Human IgG): poor or non-existent
SMILES: NCCNc1nc(NCCc2ccc(O)cc2)nc(Nc2ccccc2)n1 [APA, 2-(2-aminoethylamino)-4-anilino-6-tyramino-s-triazine]
affinity for the Fc of an antibody (Fc of an antibody): medium affinity; also recorded: weakly binds

Source: patent US20090306342A1, “BINDING OF MOLECULES” (BIO-LAYER PTY LIMITED, priority 2005, published 2009)
